Test results from PubChem BioAssay AID651919 (Sanford-Burnham Center for Chemical Genomics, 2012).
“And” between values parts separate entries of the source, which are not always exact repeats. Equal values may be shown once. The source made the active and inactive calls.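 How the source made its calls: active means CXCR6 IC50 below 5 µM, and the CXCR5 counter screen gives no IC50 under five times the CXCR6 IC50; inactive means the rest.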

Legend:
[1] = molecular target: C-X-C chemokine receptor type 5 (Homo sapiens) (UniProt P32302); assay: CXCR6 and CXCR5 receptor antagonist panel, profiling panel, selectivity assay for CXCR6 antagonist project, cell-based, CHO-K1 PathHunter beta-arrestin, luminescence, set 4 (AID 651919); details: CHO-K1 PathHunter CXCR5 beta-arrestin, CXCR5, mean of runs
[2] = molecular target: C-X-C chemokine receptor type 6 (Homo sapiens) (UniProt O00574); assay: as above; details: CHO-K1 PathHunter CXCR6 beta-arrestin, CXCR6, mean of runs
Sequence of C-X-C chemokine receptor type 6 (Homo sapiens) (O00574 whole entry, looked up): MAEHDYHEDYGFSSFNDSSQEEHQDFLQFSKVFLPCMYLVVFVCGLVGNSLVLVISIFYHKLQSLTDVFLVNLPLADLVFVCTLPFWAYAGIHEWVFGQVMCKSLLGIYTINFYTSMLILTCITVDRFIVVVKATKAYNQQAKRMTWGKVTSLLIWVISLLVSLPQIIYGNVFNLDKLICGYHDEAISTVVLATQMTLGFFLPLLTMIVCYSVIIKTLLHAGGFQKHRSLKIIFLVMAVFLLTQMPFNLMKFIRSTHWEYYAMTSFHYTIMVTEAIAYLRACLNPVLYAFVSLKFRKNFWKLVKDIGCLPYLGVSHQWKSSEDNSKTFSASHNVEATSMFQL

| Structure (SMILES) | IC50 [1] | IC50 [2] |
| --- | --- | --- |
| COc1ccc(NC(=O)CN2C3CCCC2CC(NC(=O)c2cc(OC)c(OC)c(OC)c2)C3)cc1 (stereo not drawn) | > 79 µM (inactive) | inactive |
| COc1cc(C(=O)NC2CC3CCCC(C2)N3CC(=O)Nc2ccc(C)cc2)cc(OC)c1OC (stereo not drawn) | > 79 µM (inactive) | inactive |
| COc1ccc(NC(=O)CN2C3CCCC2CC(NC(=O)c2cccc(OC)c2)C3)cc1 (stereo not drawn) | > 79 µM (inactive) | > 79 µM (inactive) |
| O=C(CN1C2CCCC1CC(NC(=O)c1ccccc1)C2)Nc1ccccc1 (stereo not drawn) | > 79 µM (inactive) | > 79 µM (inactive) |
| COc1ccc(C(=O)NC2CC3CCCC(C2)N3CC(=O)Nc2ccc(Cl)cc2)cc1 (stereo not drawn) | > 79 µM (inactive) | > 79 µM (inactive) |
| COc1cc(C(=O)NC2CC3CCCC(C2)N3CC(=O)Nc2ccccc2)cc(OC)c1OC (stereo not drawn) | > 79 µM (inactive) | 3.4 µM and 4.74 µM |
| COc1ccc(NC(=O)CN2C3CCCC2CC(NC(=O)c2ccc(OC)cc2)C3)cc1 (stereo not drawn) | > 79 µM (inactive) | > 79 µM (inactive) |
| COc1cc(C(=O)NC2CC3CCCC(C2)N3CC(=O)Nc2ccc(F)cc2)cc(OC)c1OC (stereo not drawn) | > 79 µM (inactive) | inactive |
| COc1cc(OC)cc(C(=O)NC2CC3CCCC(C2)N3CC(=O)Nc2ccc(F)cc2)c1 (stereo not drawn) | 43.4 µM | > 79 µM (inactive) |
| COc1ccc(NC(=O)CN2C3CCCC2CC(NC(=O)c2ccc(OC)c(OC)c2)C3)cc1 (stereo not drawn) | > 79 µM (inactive) | > 79 µM (inactive) |
| COc1ccc(NC(=O)CN2C3CCCC2CC(NC(=O)c2cc(OC)cc(OC)c2)C3)cc1 (stereo not drawn) | > 79 µM (inactive) | > 79 µM (inactive) |
| COc1cc(C(=O)NC2CC3CCCC(C2)N3CC(=O)Nc2ccc(Cl)cc2)cc(OC)c1OC (stereo not drawn) | > 79 µM (inactive) | 1.48 µM |
| COc1cc(OC)cc(C(=O)NC2CC3CCCC(C2)N3CC(=O)Nc2ccccc2)c1 (stereo not drawn) | 12.5 µM | > 79 µM (inactive) |
| COc1ccc(C(=O)NC2CC3CCCC(C2)N3CC(=O)Nc2ccc(F)cc2)cc1 (stereo not drawn) | > 79 µM (inactive) | > 79 µM (inactive) |
| COc1ccc(CN2C3CCCC2CC(NC(=O)c2cc(OC)c(OC)c(OC)c2)C3)cc1 (stereo not drawn) | > 79 µM (inactive) | inactive |
| COc1cccc(C(=O)NC2CC3CCCC(C2)N3CC(=O)Nc2ccccc2)c1 (stereo not drawn) | > 79 µM (inactive) | > 79 µM (inactive) |
| COc1ccc(C(=O)NC2CC3CCCC(C2)N3CC(=O)Nc2ccccc2)cc1 (stereo not drawn) | > 79 µM (inactive) | > 79 µM (inactive) |
| COc1cc(OC)cc(C(=O)NC2CC3CCCC(C2)N3CC(=O)Nc2ccc(Cl)cc2)c1 (stereo not drawn) | > 79 µM (inactive) | > 79 µM (inactive) |
| COc1ccc(C(=O)NC2CC3CCCC(C2)N3CC(=O)Nc2ccccc2)cc1OC (stereo not drawn) | > 79 µM (inactive) | > 79 µM (inactive) |
| COc1ccccc1NC(=O)CN1C2CCCC1CC(NC(=O)c1cc(OC)c(OC)c(OC)c1)C2 (stereo not drawn) | > 79 µM (inactive) | 1.85 µM |
| COc1cc(C(=O)NC2CC3CCCC(C2)N3CC(=O)Nc2ccccc2Cl)cc(OC)c1OC (stereo not drawn) | > 79 µM (inactive) | 0.356 µM and 0.137 µM |

Continued, values first:

| IC50 [1] | IC50 [2] | Structure (SMILES) |
| --- | --- | --- |
| > 79 µM (inactive) | > 79 µM (inactive) | COc1ccc(NC(=O)CN2C3CCCC2CC(NC(=O)c2ccc4c(c2)OCO4)C3)cc1 (stereo not drawn) |
| > 79 µM (inactive) | > 79 µM (inactive) | O=C(CN1C2CCCC1CC(NC(=O)c1ccc3c(c1)OCO3)C2)Nc1ccc(Cl)cc1 (stereo not drawn) |
| > 79 µM (inactive) | > 79 µM (inactive) | O=C(CN1C2CCCC1CC(NC(=O)c1ccc3c(c1)OCO3)C2)Nc1ccc(F)cc1 (stereo not drawn) |
| > 79 µM (inactive) | > 79 µM (inactive) | COc1cccc(C(=O)NC2CC3CCCC(C2)N3CC(=O)Nc2ccc(Cl)cc2)c1 (stereo not drawn) |
| > 79 µM (inactive) | > 79 µM (inactive) | COc1cccc(C(=O)NC2CC3CCCC(C2)N3CC(=O)Nc2ccc(F)cc2)c1 (stereo not drawn) |
| > 79 µM (inactive) | > 79 µM (inactive) | COc1ccc(C(=O)NC2CC3CCCC(C2)N3CC(=O)Nc2ccc(F)cc2)cc1OC (stereo not drawn) |
| > 79 µM (inactive) | > 79 µM (inactive) | Cc1ccc(NC(=O)CN2C3CCCC2CC(NC(=O)c2ccc4c(c2)OCO4)C3)cc1 (stereo not drawn) |
| > 79 µM (inactive) | > 79 µM (inactive) | COc1cccc(C(=O)NC2CC3CCCC(C2)N3CC(=O)Nc2ccc(C)cc2)c1 (stereo not drawn) |
| > 79 µM (inactive) | > 79 µM (inactive) | COc1cc(OC)cc(C(=O)NC2CC3CCCC(C2)N3CC(=O)Nc2ccc(C)cc2)c1 (stereo not drawn) |
| > 79 µM (inactive) | > 79 µM (inactive) | O=C(CN1C2CCCC1CC(NC(=O)c1ccc3c(c1)OCO3)C2)Nc1ccccc1 (stereo not drawn) |
| > 79 µM (inactive) | > 79 µM (inactive) | COc1ccc(C(=O)NC2CC3CCCC(C2)N3CC(=O)Nc2ccc(C)cc2)cc1OC (stereo not drawn) |
| > 79 µM (inactive) | > 79 µM (inactive) | COc1ccc(C(=O)NC2CC3CCCC(C2)N3CC(=O)Nc2ccc(Cl)cc2)cc1OC (stereo not drawn) |
| > 79 µM (inactive) | > 79 µM (inactive) | COc1ccc(C(=O)NC2CC3CCCC(C2)N3CC(=O)Nc2ccc(C)cc2)cc1 (stereo not drawn) |
